Experimental data taken from patent US20080306037A1, “Product for Use in the Prevention and Treatment of Cardiovascular Diseases, Cancer and Chronic Inflammatory Diseases” (priority 2005, published 2008).

System: NF-kB transcription factor
Assay: Luciferase trial: inhibition of NF-kB activation by TNFα in 5.1 linfoid cells (Jurkat clone, HIV-LTR luciferase)
Assay type: cell-based
Details: concentration 125 μg/ml, 30 min pre-incubation, TNFα 2 ng/ml 6 hours
Description: Cells. A cellular line 5.1, that is a clone derived from Jurkat stably transfected with a plasmid that contains the gene of the luciferase channelled by the HIV-LTR promoter, an exponential growth is maintained in a RPMI 1640 medium supplemented with a 10% of an foetal bovine serum deactivated by heat, 2 mM of L-glutamine, 1 mM HEPES, antibiotics and 200 μg/ml of G418. Luciferase Trial. […] Next, the cells were damaged in 25 mM tris-phosphate pH 7,8, 8 mM MgCl2 1 mM DTT, 1% Triton X-100, y 7% glycerol. The luciferase activity was measured using Autolumat LB 9501 following the instructions of the luciferase trial kit and the protein concentration was measured by the Bradford method. In order eliminate the background noise caused by the lysis solution, this value was deducted in each value of the experiment and the activation was expressed as proportional induction compared to the untreated cells. Cells. The 5.1 cellular line was used, as and how described in example 1. Luciferase Trial. The 5.1 cellular line was pre-incubated for 30 minutes with oleic acid in the concentrations as stated, followed by stimulation with TNFα (2 ng/ml) for 6 hours. The NF-kB transcriptional activity was measured in the same way as in example 1. Cells. The 5.1 cellular line was used, as and how described in example 1. Luciferase Trial. […] The NF-kB transcriptional activity was measured in the same way as in example 1.

Question: With `CCCCCCCC/C=C\CCCCCCCC(=O)O` [oleic acid] as the compound, how does the “activation index (NF-kB transcription factor activation, luciferase, proportional induction compared to untreated cells)” value read?
Answer: Its value is 7-8.
